Experimental data taken from patent US7528138B2, “Pyrazolo[1,5-a]pyrimidines useful as inhibitors of protein kinases” (Vertex Pharmaceuticals Incorporated, priority 2004, dated 2009).

How the values were obtained:
Type in all cases: biochemical
Itk = biological target: T1, Itk (Homo sapiens, UniProt Q08881); test: ITK Inhibition Assay (Radiometric), radioactive-phosphate incorporation; details: enzyme inhibition data (Ki), Table 11; radiometric or UV assay not stated
T1 sequence (Q08881 1-620): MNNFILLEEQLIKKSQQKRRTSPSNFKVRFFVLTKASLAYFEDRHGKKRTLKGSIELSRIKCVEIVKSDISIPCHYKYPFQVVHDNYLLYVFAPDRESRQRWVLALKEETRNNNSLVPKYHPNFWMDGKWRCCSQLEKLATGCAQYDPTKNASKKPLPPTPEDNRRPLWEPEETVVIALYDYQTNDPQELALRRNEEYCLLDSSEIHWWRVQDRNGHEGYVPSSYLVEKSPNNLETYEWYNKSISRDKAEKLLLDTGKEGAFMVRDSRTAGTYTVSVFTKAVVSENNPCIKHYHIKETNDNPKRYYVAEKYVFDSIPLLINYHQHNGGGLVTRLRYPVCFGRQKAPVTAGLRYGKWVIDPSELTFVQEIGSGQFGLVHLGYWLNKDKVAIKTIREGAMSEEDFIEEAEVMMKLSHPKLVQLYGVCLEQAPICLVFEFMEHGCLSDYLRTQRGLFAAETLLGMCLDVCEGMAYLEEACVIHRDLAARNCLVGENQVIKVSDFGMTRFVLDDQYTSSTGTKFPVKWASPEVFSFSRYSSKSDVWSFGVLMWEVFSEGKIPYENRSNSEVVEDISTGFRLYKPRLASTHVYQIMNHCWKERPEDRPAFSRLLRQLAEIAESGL
In short: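 Radiometric 33P incorporation into SAM68 peptide (D332-443) with filter capture and scintillation counting; 10 min pre-incubation then 10 min reaction at 25° C. IC50 format: 30 nM Itk, 15 μM ATP, 2 μM peptide, HEPES pH 7.5. Ki(app) format: 50 nM Itk, 7.5 μM ATP, 3 μM peptide, MOPS pH 7.0.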

JAK3 = biological target: T2, JAK3 (Homo sapiens, UniProt P52333); test: JAK3 Inhibition Assay, 33P incorporation; details: enzyme inhibition data (Ki), Table 11
T2 sequence (P52333 1-1124): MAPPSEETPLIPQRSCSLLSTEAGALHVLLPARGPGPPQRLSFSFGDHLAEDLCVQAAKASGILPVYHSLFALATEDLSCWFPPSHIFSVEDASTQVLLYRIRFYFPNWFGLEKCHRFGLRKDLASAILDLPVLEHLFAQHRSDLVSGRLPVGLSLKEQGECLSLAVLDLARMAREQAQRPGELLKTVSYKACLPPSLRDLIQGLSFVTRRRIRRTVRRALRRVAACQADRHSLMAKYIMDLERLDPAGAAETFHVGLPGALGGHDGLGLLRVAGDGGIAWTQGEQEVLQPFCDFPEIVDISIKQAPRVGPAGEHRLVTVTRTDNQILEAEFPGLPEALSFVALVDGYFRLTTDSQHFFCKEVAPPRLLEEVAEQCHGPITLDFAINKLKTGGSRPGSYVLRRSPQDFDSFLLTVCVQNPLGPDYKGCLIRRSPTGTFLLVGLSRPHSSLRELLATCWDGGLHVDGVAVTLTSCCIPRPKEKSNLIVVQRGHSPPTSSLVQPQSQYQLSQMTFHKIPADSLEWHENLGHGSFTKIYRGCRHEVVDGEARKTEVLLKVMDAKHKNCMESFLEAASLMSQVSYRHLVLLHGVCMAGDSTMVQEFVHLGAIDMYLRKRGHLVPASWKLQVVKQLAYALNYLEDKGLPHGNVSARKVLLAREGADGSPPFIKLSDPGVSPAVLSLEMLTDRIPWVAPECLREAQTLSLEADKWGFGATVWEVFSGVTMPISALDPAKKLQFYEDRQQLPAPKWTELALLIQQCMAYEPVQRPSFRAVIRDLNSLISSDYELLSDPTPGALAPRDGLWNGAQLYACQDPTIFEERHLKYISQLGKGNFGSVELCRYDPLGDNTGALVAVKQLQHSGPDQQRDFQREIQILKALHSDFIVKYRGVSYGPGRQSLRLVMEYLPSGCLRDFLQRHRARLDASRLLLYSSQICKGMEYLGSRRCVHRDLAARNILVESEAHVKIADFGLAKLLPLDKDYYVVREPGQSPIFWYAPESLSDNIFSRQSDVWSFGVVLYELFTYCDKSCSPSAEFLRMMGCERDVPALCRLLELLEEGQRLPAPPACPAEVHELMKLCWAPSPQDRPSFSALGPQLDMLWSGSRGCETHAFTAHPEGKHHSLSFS
In short: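 Recombinant JAK3 at 1 nM in HEPES pH 7.4 buffer with 10 mM MgCl2, 1 mM DTT and 0.01% BSA. Substrates were 5 μM ATP (200 uCi/μmole) and 1 μM poly(Glu)4Tyr, reacted 20 min at 25 °C. Stopped with TCA, and 33P incorporation counted on glass fiber filters.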

c-Met = c-Met (Homo sapiens, UniProt P08581); test: c-Met Inhibition Assay, coupled enzyme system; details: enzyme inhibition data (Ki), Table 11
In short: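 Pyruvate kinase/lactate dehydrogenase-coupled NADH assay in HEPES pH 7.5 with 80 nM c-Met, 200 μM ATP and 10 μM polyGluTyr at 30° C. Compound (0.006–12.5 μM final, 12-point) preincubated 10 min before ATP start; rates over 10 min gave Ki.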

Chain of c-Met (P08581 25-1390): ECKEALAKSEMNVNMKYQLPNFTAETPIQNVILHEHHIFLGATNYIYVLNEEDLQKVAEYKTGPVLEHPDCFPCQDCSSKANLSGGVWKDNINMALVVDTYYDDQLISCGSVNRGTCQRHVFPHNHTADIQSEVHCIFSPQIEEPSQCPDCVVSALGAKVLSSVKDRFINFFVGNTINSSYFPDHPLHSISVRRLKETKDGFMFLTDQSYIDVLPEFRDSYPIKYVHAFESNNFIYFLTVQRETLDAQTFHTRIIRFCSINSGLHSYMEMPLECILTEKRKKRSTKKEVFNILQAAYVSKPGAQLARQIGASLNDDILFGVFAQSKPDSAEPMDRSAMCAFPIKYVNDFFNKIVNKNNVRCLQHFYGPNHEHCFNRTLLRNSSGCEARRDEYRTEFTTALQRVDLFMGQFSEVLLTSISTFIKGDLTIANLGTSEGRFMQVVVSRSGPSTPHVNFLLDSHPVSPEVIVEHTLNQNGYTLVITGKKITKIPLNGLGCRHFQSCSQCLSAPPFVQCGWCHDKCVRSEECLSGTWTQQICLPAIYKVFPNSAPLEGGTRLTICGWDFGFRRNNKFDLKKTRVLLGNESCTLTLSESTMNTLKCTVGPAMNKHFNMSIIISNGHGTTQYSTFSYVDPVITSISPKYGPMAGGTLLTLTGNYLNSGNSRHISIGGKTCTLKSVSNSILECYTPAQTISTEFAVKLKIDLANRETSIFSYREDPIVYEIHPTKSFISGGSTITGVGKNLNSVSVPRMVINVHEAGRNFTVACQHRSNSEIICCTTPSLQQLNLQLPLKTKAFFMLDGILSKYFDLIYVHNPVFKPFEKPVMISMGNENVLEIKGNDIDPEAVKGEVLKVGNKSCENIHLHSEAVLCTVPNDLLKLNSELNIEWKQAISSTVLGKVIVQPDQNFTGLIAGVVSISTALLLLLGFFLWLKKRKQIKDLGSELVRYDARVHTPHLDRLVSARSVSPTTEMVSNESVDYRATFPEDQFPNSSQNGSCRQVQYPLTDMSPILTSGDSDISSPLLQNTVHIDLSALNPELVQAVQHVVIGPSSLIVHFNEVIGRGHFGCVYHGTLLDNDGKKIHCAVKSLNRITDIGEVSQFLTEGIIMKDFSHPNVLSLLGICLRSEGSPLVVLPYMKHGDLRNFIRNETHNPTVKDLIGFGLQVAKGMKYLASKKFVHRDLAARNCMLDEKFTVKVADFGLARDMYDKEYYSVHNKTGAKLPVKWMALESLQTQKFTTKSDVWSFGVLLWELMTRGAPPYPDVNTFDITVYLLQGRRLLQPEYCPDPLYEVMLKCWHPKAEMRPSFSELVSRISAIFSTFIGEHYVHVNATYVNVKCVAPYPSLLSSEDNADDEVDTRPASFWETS

Row | SMILES | Ki (Itk) [µM] | Ki (JAK3) [µM] | Ki (c-Met) [µM]
1 | Nc1nn2cc(CCCNC3CCCCC3)cnc2c1-c1ccccn1 [Compound V-323] | 0.5 to 5 | > 5 | 0.5 to 5
2 | COC(=O)/C=C/c1ccccc1-c1cnc2c(-c3ccccn3)c(N)nn2c1 [Compound V-17] | 0.5 to 5 | > 5 | 0.5 to 5
3 | Nc1nn2cc(-c3ccncn3)cnc2c1-c1nncn1Cc1ccc(Cl)c(Cl)c1 [Compound V-136] | 0.5 to 5 | > 5 | 0.5 to 5
4 | Cc1cnc2c(-c3cc(N[C@H](CO)CC(C)C)ncn3)c(N)nn2c1 [Compound V-298] | < 0.5 | 0.5 to 5 | < 0.5
5 | Cc1cnc2c(-c3cc(N4CCC[C@H]4CO)ncn3)c(N)nn2c1 [Compound V-306] | 0.5 to 5 | 0.5 to 5 | < 0.5
6 | CCC(CO)Nc1cc(-c2c(N)nn3cc(C)cnc23)ncn1 (stereo not drawn) [Compound V-288] | < 0.5 | 0.5 to 5 | < 0.5
7 | Cc1cnc2c(-c3cc(N4CCCC(CO)C4)ncn3)c(N)nn2c1 (stereo not drawn) [Compound V-340] | 0.5 to 5 | 0.5 to 5 | < 0.5
8 | CCN(CCO)C(=O)c1cccc(-c2cnc3c(-c4ccccn4)c(N)nn3c2)n1 [Compound V-128] | 0.5 to 5 | > 5 | < 0.5
9 | CCN(Cc1ccncc1)C(=O)c1c(N)nn2cc(-c3ccncn3)cnc12 [Compound V-36] | 0.5 to 5 | > 5 | 0.5 to 5
10 | CCOC(=O)C1CCN(c2cc(-c3cnc4c(-c5ccccn5)c(N)nn4c3)ccn2)CC1 [Compound V-253] | 0.5 to 5 | > 5 | 0.5 to 5
11 | COC(=O)C1CCCN1C(=O)c1ccc(-c2cnc3c(-c4ccccn4)c(N)nn3c2)nc1 (stereo not drawn) [Compound V-66] | 0.5 to 5 | 0.5 to 5 | < 0.5
12 | Cc1cnc2c(-c3cc(N4CCC[C@H]4CN4CCCC4)ncn3)c(N)nn2c1 [Compound V-305] | 0.5 to 5 | > 5 | 0.5 to 5
13 | Nc1nn2cc(CCCO)cnc2c1-c1ccccn1 [Compound V-310] | 0.5 to 5 | > 5 | 0.5 to 5
14 | CC(C)(C)OC(=O)N1CCC(CNC(=O)c2cnc3c(-c4ccccn4)c(N)nn3c2)CC1 [Compound V-201] | 0.5 to 5 | > 5 | 0.5 to 5
15 | Cc1cccc(C)c1-c1cnc2c(-c3ccccn3)c(N)nn2c1 [Compound V-4] | 0.5 to 5 | > 5 | 0.5 to 5
16 | Nc1nn2cc(-c3ccnc(N4CCC[C@@H]4CO)c3)cnc2c1-c1ccccn1 [Compound V-251] | 0.5 to 5 | > 5 | < 0.5
17 | CN(CCc1ccccn1)C(=O)c1cccc(-c2cnc3c(-c4ccccn4)c(N)nn3c2)n1 [Compound V-100] | 0.5 to 5 | > 5 | < 0.5
18 | CN1CCC(N(C)c2ccc(-c3cnc4c(-c5ccccn5)c(N)nn4c3)cn2)CC1 [Compound V-169] | < 0.5 | > 5 | < 0.5
19 | Nc1nn2cc(-c3ccc(N4CCOCC4)nc3)cnc2c1-c1ccccn1 [Compound V-144] | 0.5 to 5 | > 5 | < 0.5
20 | CNC(=O)c1cccc(-c2cnc3c(-c4ccccn4)c(N)nn3c2)n1 [Compound V-118] | 0.5 to 5 | > 5 | < 0.5
21 | Nc1nn2cc(-c3ccccc3O)cnc2c1-c1ccccn1 [Compound V-8] | 0.5 to 5 | > 5 | 0.5 to 5
